# According to a melting point compilation (Tetko et al.; mined from patent text by program, amines drawn as free bases though some values may be those of a salt):
row,melting point [°C],SMILES
1,162,CC(C(=O)O)c1ccc(O)c(N)c1 (centres undefined)
2,135,CC(C=Cc1ccccc1)NC(=O)c1ccccc1 (racemic)
3,188 to 189,CC(=O)Nc1cc(N(CCO)CCO)ccc1N=Nc1snc(C)c1C#N
4,108 to 109,OC1(c2cncs2)CCCc2cc(Cl)ccc21 (centres undefined)
5,239 to 241,CN1C(=O)N(c2cc(Cl)cc(Cl)c2)C(=O)/C1=C\c1ccc(C#N)cc1
6,190 to 192,Cc1ccc(-c2ccc3c(c2)C=C(C(=O)O)C(C)O3)cc1 (centres undefined)
7,66 to 67,CCCCCCCCSc1nc2cc(Cl)ccc2[nH]1
8,177 to 178,CCCCc1cc(O)n2nccc2n1
9,121 to 122,CC(=O)N(CCN1CCOCC1)C(C)C1(c2ccc(Cl)c(Cl)c2)CCC1 (centres undefined)
10,164 to 167,CCOC(=O)C(Cl)=Cc1cc(-n2ncc(C(F)(F)F)c(C)c2=O)ccc1Cl
11,78 to 79,Cc1ccc(C(=O)C2C(=O)CCC(C)(C)C2=O)cc1 (centres undefined)
12,177 to 179,COc1ccc(C(=O)c2ccc(-c3nc4ccccc4o3)cc2)c(O)c1
13,177 to 180,O=C1NCCCc2ccc([N+](=O)[O-])cc21
14,158 to 161,O=C1CC(C(F)(F)F)CC(=O)N1c1cc(C2OCCCO2)c(Cl)cc1F
15,142 to 144,COc1ccc(C2OC2C(N)=O)cc1 (centres undefined)
16,186 to 189,CC(=O)OC1CSC(Oc2cccc(-c3cccc(Cl)n3)c2)C(OC(C)=O)C1OC(C)=O (centres undefined)
17,78 to 80,CON(C)C(=O)[C@H]1CCn2c(cc3ccccc32)C1
18,225 to 227,O=C(O)C1CCN(S(=O)(=O)c2ccc(Br)cc2)CC1
19,260 to 263,N#CCCNC(=O)Nc1cc(N2CC(c3ccccc3)CC2=O)ccn1 (centres undefined)
20,173 to 175,CCC(C)c1ccc(-n2c(-c3ccc(OCCO)cc3)nc3ccccc3c2=O)cc1 (centres undefined)
21,226 to 227,CCOc1cc2c(cc1O)C(=NO)CC1C2CCC2(C)C(OC(C)=O)CCC12 (centres undefined)
22,59 to 60,CCCCCCCCCc1c(Cl)nc(-c2ccc(OC)c(F)c2)nc1Cl
23,177 to 182,CCCCc1nc2c(N)nc3ccc(O)cc3c2n1CCCCNC(=O)N1CCOCC1

row,melting point [°C],SMILES
1,132 to 133,CNC(=S)Nc1cc(SC)ccc1N1CCOCC1
2,246,Cc1cc2n(c1)Cc1cc(Cl)ccc1N=C2N1CCN(CC(C)(C)C(=O)O)CC1
3,147 to 149,COc1cc(C(=O)CBr)cc([N+](=O)[O-])c1O
4,129 to 132,O=c1c2c(Cc3cccc(OC(F)(F)F)c3)n[nH]c2c2cccnc2n1-c1cccc(C(F)(F)F)c1
5,218 to 219,Nc1cc(C(=O)O)cc(S(N)(=O)=O)c1NCc1ccccc1
6,110 to 111,COc1ccc(C(=NOC(C)=O)c2cc(F)ccc2F)c(O)c1
7,141 to 142,c1cc(CN2CCCCC2)cc(OCCNc2nc3ccccc3s2)c1
8,106 to 107,CC(C)Oc1nc(-n2cccn2)nc(Cl)c1-c1c(F)cc(F)cc1F
9,232,CC=CC(=O)Nc1n[nH]c2cc(Br)ccc12
10,113 to 119,COc1nnc(Cl)c(-c2c(F)cc(F)cc2F)c1-c1ccc(Br)cc1
11,232 to 234,Cc1cc(C)c(Nc2nc(C)ncc2S(=O)(=O)c2ccc(-c3ccncc3)cc2)c(C)c1
12,105 to 107,COc1ccc(/C=C(\C#N)c2ccc(Cl)cc2Cl)cc1OC1CCCC1
13,134,COc1ccc2ccc(NC(=O)c3ccccc3)nc2n1
14,227 to 228,CC1(C)CCC(C)(C)c2cc(C#Cc3ccc(-c4nnn[nH]4)cc3)ccc21
15,300,COc1ccc2c(=O)c(C#N)c(N)oc2c1
16,205 to 207,CC(C)Cc1nc(-c2ccccc2)cnc1O
17,169 to 171,CC1CCCN(C(=O)C2C(C)c3ccccc3N2c2ccc(Cl)nn2)C1 (centres undefined)
18,174 to 178,Nc1cc(Cl)cc(Cl)c1C(=O)NCc1ccc(Cl)cc1
19,89 to 90,Nc1cc(S(=O)c2ccccc2)ccc1Cl (centres undefined)
20,236 to 237,CCOc1cc(-c2cnc3[nH]cc(C(=O)C(C)(C)C)c3n2)cc(N2CCCC2)c1
21,105 to 115,CCCCCCC(C(=O)O)n1ccc2cc(-c3ccccc3-c3nn[nH]n3)ccc21 (centres undefined)
22,236 to 238,CCCC1=C(C(=O)OCC)C(c2cccc(C(F)(F)F)c2Cl)c2c[nH]nc2N1 (centres undefined)
23,128 to 129,CCN(CC)C(=O)C(=O)Nc1cc(C)c(S(=O)(=O)C[N+](=O)[O-])c(C)c1

row,melting point [°C],SMILES
1,89 to 91,Cc1cc(CC(=O)OC(C)(C)C)ccc1NC(=O)Nc1ccccc1F
2,212 to 213,CC1(C)OC(=O)N(c2cccc(C#CC#N)c2)c2ccccc21
3,168,CCN1C(=O)C(O)=C(c2c(C)cc(C)cc2C)C1=O
4,99.5 to 100,O=C(Nc1ccc(Cl)cc1)/C(Br)=C/Br
5,110,CCCCNS(=O)(=O)c1cc(C(=O)Cl)ccc1Cl
6,81 to 83,CC(=O)Oc1ccc(C(=O)c2cccc(OC(C)=O)c2)cc1
7,67.5,CCOc1ccc(-n2c(C(C)N(Cc3cccnc3)C(=O)OC(C)(C)C)nc3ccccc3c2=O)cc1 (centres undefined)
8,65 to 66,O=C(CCCCC1CCSS1)N1CCc2ccccc21 (centres undefined)
9,120,CC(=CN1CCC(CCCC2CCN(C=C(C)c3ccccc3)CC2)CC1)c1ccccc1
10,49 to 59,COC(=O)c1cc(Cl)cc(CC=O)c1O
11,218 to 219,CS(=O)(=O)c1ccc(Oc2cc(OCc3ccccc3)c3[nH]c(C4=NCC(CC(=O)O)S4)cc3c2)cc1 (centres undefined)
12,140,CN(S(C)(=O)=O)S(=O)(=O)N=C=O
13,253 to 257,Cc1c(F)c(N)nc(-n2cc(C(=O)O)c(=O)c3cc(F)c(F)c(Cl)c32)c1F
14,251,CN1CCC[C@H]1COc1ccc(/C=C/C(=O)O)cc1
15,85,CC(C)(C)OC(=O)C(=CC1C(C(=O)O)C1(C)C)OC(C)(C)C (centres undefined)
16,156 to 157,COC(=O)C1=C(CF)NC(C)=C(C(=O)OC(C)C)C1c1cccc([N+](=O)[O-])c1Cl (centres undefined)
17,167 to 168,COc1cccc(CNC(=O)c2c(-c3ccc(F)cc3)c(-c3ccc(F)cc3)c(C=O)n2C(C)C)c1
18,88 to 89,CCNC(=O)n1nc(Oc2c(Cl)cc(C(F)(F)F)cc2Cl)cc1-c1ccc(Cl)cc1
19,70 to 73,CCCCCCCCCCCCn1nnc(CC(=O)O)n1
20,249 to 253,CCN1CCN(c2ccnc3c(NC(=O)c4c(Cl)cccc4Cl)cccc23)C1=O
21,138,CON=C(c1ccccc1)c1ccccc1N
22,217,O=C(Nc1ccc2[nH]c(=O)oc2c1)C(=O)N1CCC(Cc2ccc(C(F)(F)F)cc2)CC1
23,95 to 98,N#CCCNC(=O)c1cccc(-c2cccc3cc(Cc4cccc(C(F)(F)F)c4)sc23)c1

row,melting point [°C],SMILES
1,134,Cc1ccc(S(=O)(=O)N2[C@@H](CCC(=N)NO)CC[C@H]2c2ccc(F)cc2)cc1 (racemic)
2,131 to 134,CCOC(=O)C1=Cc2cc(-c3ccc(Cl)cc3)ccc2OCC1
3,132 to 134,CCc1cnc(C2=NC(C)(C(C)C)C(=O)N2)c(C(=O)NCCCC(=O)OC)c1 (centres undefined)
4,73 to 80,COC(=O)c1ccc(CBr)c2occc12
5,159 to 161,CN(C)CCOc1cc2c(Nc3ccc(Oc4ccccc4)cc3)c(C#N)cnc2cn1
6,103 to 105,CC(C)(C)NS(=O)(=O)c1cccc2c1SC(C)(C)C2
7,130 to 132,CC[C@H](Cn1cnnc1)n1cnc2cc3c(=O)n([C@H](CC)Cn4ncnn4)cnc3cc2c1=O
8,273 to 274,CCNc1nc(C)c(-c2ccnc(Nc3ccc(N4CCOCC4)c(Cl)c3)n2)s1
9,210,NS(=O)(=O)c1cccc(-c2cc(-c3nc(-c4ccc(C(F)(F)F)cc4F)cc(C(F)(F)F)n3)ccn2)c1
10,149 to 150,CCN1c2ncc(CCc3ccncc3)cc2C(=O)N(C)c2ccc(C#N)nc21
11,216 to 220,CCOC(=O)Oc1ccc2nc(S)n(C)c(=O)c2c1
12,147 to 148,CCC(C)(C)c1ccc(OCCCCNC(=O)c2cc(Sc3nnnn3-c3ccccc3)c3ccccc3c2O)c(C(C)(C)CC)c1
13,127,CC(C)(C)OC(=O)N1CCN(c2ccc(NC(=O)Nc3cc(Cl)ccc3NS(C)(=O)=O)cc2)CC1
14,263 to 264,CC1Cc2cc3c(cc2C(c2ccc([N+](=O)[O-])cc2)=NN1c1nnn[nH]1)OCO3 (centres undefined)
15,176 to 181,N#Cc1cc(F)c(NC(=O)CC(=O)C(F)(F)F)cc1F
16,142 to 143,Cn1c(Cc2ccc(Cl)c(Oc3cc(C#N)cc(C#N)c3)c2F)nn(COC(=O)CCC(=O)O)c1=O
17,118 to 120,CCOC(=O)c1c(Oc2ccc(Cl)cc2N)c2ccccc2n1C
18,138 to 139,COCC(C)n1nc(-c2c(-c3ccccc3)nn3ccc(OC)cc23)ccc1=O (centres undefined)
19,204,Cc1cc(C#N)cc(C(=O)Nc2ccc(F)cn2)n1
20,218 to 219,CCOC(=O)c1cccc2c1N=C(c1ccccc1)CC2=O
21,118 to 120,CC(=O)Nc1cccc(-c2cccc(-n3cnc4cc(C(F)(F)F)ccc43)c2)c1
22,173,CO/C=C(/C(=O)OC)c1c(O)c(C)nn1C
23,67 to 70,O=Cc1ccc(Oc2ccc3c(c2)OCO3)cc1

row,SMILES,melting point [°C]
1,CC1C[C@H]2[C@@H]3CCC4=CC(=O)CC[C@]4(CS)[C@H]3CC[C@]2(C)C1=O (some centres undefined),130 to 132
2,Cc1cccc(N(C)C(=O)NC2N=C(c3ccccc3F)c3ccccc3N(CC(=O)N3CC4CCC(CC4)C3)C2=O)c1 (racemic),207 to 212
3,CN(C)Cc1nnc2n1-c1ccc(Cl)cc1C(c1ccccc1)=NC2,168 to 171
4,CN1C2CCC(N3C(=O)c4ccccc4C3=O)C1CC2 (centres undefined),145 to 147
5,CCCCS(=O)(=O)OCCN(CCBr)c1c(C(=O)NCCOP(=O)(O)O)cc([N+](=O)[O-])cc1[N+](=O)[O-],123 to 125
6,CNC(=O)ON=Cc1nn(-c2c(Cl)cc(C(F)(F)F)cc2Cl)c(N)c1S(C)=O (centres undefined),146 to 147
7,Fc1ccccc1C1=NCc2c[nH]cc2-c2ccc(Cl)cc21,197 to 199
